From PMC8677773, “Comprehensive exploration of chemical space using trisubstituted carboranes” (Scientific Reports, 2021)

System: recombinant rabies virus strain 1088 expressing gaussia luciferase (1088/GLuc)
Assay: microbe, parasite or virus in culture
Type: cell-based
Conditions: Lyssavirus rabies, N2a, 72 h, read-out: RABV IC50 (concentration required to inhibit the relative light units by 50%)

NC(=O)c1nc(F)c[nH]c1=O [Favipiravir]
IC50: 38 µM
